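Five compound concentrations were applied to cells in 96-well plates for 48 hours; endpoints were derived by simple linear interpolation of the resulting dose-response curve. GI50: concentration for 50% inhibition of growth. TGI marks complete inhibition of growth.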
Legend:
Experiment in all cases: inhibition of tumour cell growth, NCI panel, 48 h
[1] = tested on: LOX IMVI melanoma
[2] = tested on: SF-539 CNS
[3] = tested on: NCI-H522 lung
[4] = tested on: EKVX NSCLC
[5] = tested on: MCF7 breast
[6] = tested on: UACC-257 melanoma
[7] = tested on: RXF 393 renal
[8] = tested on: SN12C renal
[9] = tested on: UACC-62 melanoma
[10] = tested on: TK-10 renal
[11] = tested on: SNB-19 CNS
[12] = tested on: HCT-116 colon
[13] = tested on: SW-620 colon
[14] = tested on: NCI-H460 lung
[15] = tested on: HS 578T breast
[16] = tested on: HOP-92 NSCLC
[17] = tested on: MALME-3M melanoma
[18] = tested on: CCRF-CEM leukemia
[19] = tested on: SF-295 CNS
[20] = tested on: NCI-H23 lung
[21] = tested on: IGROV1 ovarian
[22] = tested on: SK-OV-3 ovarian
[23] = tested on: PC-3 prostate
[24] = tested on: A549 NSCLC
[25] = tested on: MOLT-4 leukemia
[26] = tested on: KM12 colon
[27] = tested on: CAKI-1 renal
[28] = tested on: SK-MEL-2 melanoma
[29] = tested on: OVCAR-4 ovarian
[30] = tested on: OVCAR-3 ovarian
[31] = tested on: SF-268 CNS
[32] = tested on: COLO 205 colon
[33] = tested on: K-562 leukemia
[34] = tested on: HOP-62 NSCLC
[35] = tested on: NCI-H226 lung
[36] = tested on: SR leukemia
[37] = tested on: A498 renal
[38] = tested on: U251 CNS
[39] = tested on: HCC-2998 colon
[40] = tested on: BT-549 breast
[41] = tested on: SK-MEL-28 melanoma
[42] = tested on: HT29 colon
[43] = tested on: OVCAR-8 ovarian
[44] = tested on: M14 melanoma
[45] = tested on: MDA-MB-435
[46] = tested on: 786-0 renal
[47] = tested on: HL-60(TB) leukemia
[48] = tested on: RPMI-8226 leukemia
[49] = tested on: T-47D breast
[50] = tested on: OVCAR-5 ovarian
[51] = tested on: SK-MEL-5 melanoma
[52] = tested on: SNB-75 CNS
[53] = tested on: ACHN renal
[54] = tested on: NCI/ADR-RES ovarian
[55] = tested on: HCT-15 colon
[56] = tested on: MDA-MB-231 breast
[57] = tested on: DU-145 prostate
[58] = tested on: UO-31 renal
[59] = tested on: MDA-N

SMILES: CCOc1cc(-c2nncn2C)ccc1Nc1ncc2cc(C)nc(NCC(C)(C)C)c2n1
- GI50 [1]: 1.1 µM
- TGI [1]: > 100 µM
- TGI [2]: > 100 µM
- GI50 [3]: > 64.4 µM
- TGI [3]: > 100 µM
- TGI [4]: > 100 µM
- TGI [5]: > 100 µM
- GI50 [6]: > 100 µM
- TGI [6]: > 100 µM
- GI50 [7]: 2.33 µM
- TGI [7]: > 100 µM
- GI50 [8]: > 100 µM
- TGI [8]: > 100 µM
- GI50 [9]: > 100 µM
- TGI [9]: > 100 µM
- GI50 [10]: > 100 µM
- TGI [10]: > 100 µM
- GI50 [11]: > 100 µM
- TGI [11]: > 100 µM
- GI50 [12]: 0.0849 µM
- TGI [12]: > 100 µM
- GI50 [13]: 0.439 µM
- TGI [13]: > 100 µM
- GI50 [14]: 0.535 µM
- TGI [14]: > 100 µM
- TGI [15]: > 100 µM
- GI50 [16]: > 26 µM
- TGI [16]: > 100 µM
- GI50 [17]: > 100 µM
- TGI [17]: > 100 µM
- GI50 [18]: 0.321 µM
- TGI [18]: > 100 µM
- GI50 [19]: > 100 µM
- TGI [19]: > 100 µM
- GI50 [20]: > 89.7 µM
- TGI [20]: > 100 µM
- GI50 [21]: > 100 µM
- TGI [21]: > 100 µM
- GI50 [22]: > 100 µM
- TGI [22]: > 100 µM
- TGI [23]: > 100 µM
- GI50 [24]: 2.34 µM
- TGI [24]: > 100 µM
- TGI [25]: > 100 µM
- GI50 [26]: > 100 µM
- TGI [26]: > 100 µM
- GI50 [27]: > 26.6 µM
- TGI [27]: > 100 µM
- GI50 [28]: > 100 µM
- TGI [28]: > 100 µM
- GI50 [29]: > 29.3 µM
- TGI [29]: > 100 µM
- GI50 [30]: > 27.5 µM
- TGI [30]: > 100 µM
- GI50 [31]: > 100 µM
- TGI [31]: > 100 µM
- GI50 [32]: 1.4 µM
- TGI [32]: > 100 µM
- TGI [33]: > 100 µM
- GI50 [34]: > 26.2 µM
- TGI [34]: > 100 µM
- GI50 [35]: > 23.5 µM
- TGI [35]: > 100 µM
- GI50 [36]: 0.15 µM
- TGI [36]: > 75.8 µM
- GI50 [37]: 0.514 µM
- TGI [37]: > 100 µM
- GI50 [38]: > 100 µM
- TGI [38]: > 100 µM
- GI50 [39]: > 100 µM
- TGI [39]: > 100 µM
- GI50 [40]: > 80.5 µM
- TGI [40]: > 100 µM
- GI50 [41]: > 100 µM
- TGI [41]: > 100 µM
- GI50 [42]: 1.78 µM
- TGI [42]: > 100 µM
- TGI [43]: > 100 µM
- GI50 [44]: > 100 µM
- TGI [44]: > 100 µM
- GI50 [45]: > 100 µM
- TGI [45]: > 100 µM
- GI50 [46]: > 100 µM
- TGI [46]: > 100 µM
- GI50 [47]: > 100 µM
- TGI [47]: > 100 µM
- GI50 [48]: 2.31 µM
- TGI [48]: > 100 µM
- GI50 [49]: 2.83 µM
- TGI [49]: > 100 µM
- GI50 [50]: > 100 µM
- TGI [50]: > 100 µM
- GI50 [51]: > 24 µM
- TGI [51]: > 100 µM
- GI50 [52]: > 26 µM
- TGI [52]: > 100 µM
- TGI [53]: > 100 µM
- GI50 [54]: 1.06 µM
- TGI [54]: > 100 µM
- GI50 [55]: 0.193 µM
- TGI [55]: > 100 µM
- TGI [56]: > 100 µM
- GI50 [57]: > 30.7 µM
- TGI [57]: > 100 µM

SMILES: COC(=O)[C@@H]1CN(C(=O)CCc2ccccc2)C(=O)N1
- TGI [1]: > 100 µM
- TGI [2]: > 100 µM
- TGI [3]: > 100 µM
- TGI [4]: > 100 µM
- TGI [6]: > 100 µM
- TGI [7]: > 100 µM
- TGI [8]: > 100 µM
- TGI [58]: > 100 µM
- TGI [10]: > 100 µM
- TGI [11]: > 100 µM
- TGI [12]: > 100 µM
- TGI [13]: > 100 µM
- TGI [14]: > 100 µM
- TGI [15]: > 100 µM
- TGI [16]: > 100 µM
- TGI [17]: > 100 µM
- TGI [18]: > 100 µM
- TGI [19]: > 100 µM
- TGI [20]: > 100 µM
- TGI [21]: > 100 µM
- TGI [22]: > 100 µM
- TGI [23]: > 100 µM
- TGI [24]: > 100 µM
- TGI [25]: > 100 µM
- TGI [26]: > 100 µM
- TGI [27]: > 100 µM
- TGI [28]: > 100 µM
- TGI [59]: > 100 µM
- TGI [29]: > 100 µM
- TGI [30]: > 100 µM
- TGI [31]: > 100 µM
- TGI [32]: > 100 µM
- TGI [33]: > 100 µM
- TGI [34]: > 100 µM
- TGI [35]: > 100 µM
- TGI [36]: > 100 µM
- TGI [37]: > 100 µM
- TGI [38]: > 100 µM
- TGI [39]: > 100 µM
- TGI [41]: > 100 µM
- TGI [42]: > 100 µM
- TGI [43]: > 100 µM
- TGI [44]: > 100 µM
- TGI [45]: > 100 µM
- TGI [46]: > 100 µM
- TGI [47]: > 100 µM
- TGI [48]: > 100 µM
- TGI [49]: > 100 µM
- TGI [50]: > 100 µM
- TGI [51]: > 100 µM
- TGI [53]: > 100 µM
- TGI [54]: > 100 µM
- TGI [55]: > 100 µM
- TGI [56]: > 100 µM
- TGI [57]: > 100 µM

Reference: PubChem BioAssay (NCI)
